Measured values: ChEMBL document CHEMBL4325859, “Research advances on anticancer activities of matrine and its derivatives: An updated overview” (Eur J Med Chem, 2019)
≈ marks a conversion by molar mass, not a printed value.

Tests used:
HT-29 [1] = assay: Growth inhibition of human HT-29 cells at 2 ml/L after 48 hrs by MTT assay relative to control; type: functional
UMR108 [2] = assay: Growth inhibition of rat UMR108 cells assessed as cell proliferation at 0.5 mg/ml after 48 hrs by MTT assay (reference value: 0.404 +/- 0.008%); type: functional; details: UMR108, 48 h, read-out: Activity
HepG2 [3] = assay: Antiproliferative activity against human HepG2 cells after 48 hrs by MTT assay; type: functional, cell-based; details: HepG2, 48 h
PANC-1 [4] = assay: Induction of apoptosis in human PANC1 cells at 0.25 mg/ml by flow cytometry (reference value: 4.13%); type: functional
MG-63 [5] = assay: Growth inhibition of human MG63 cells after 48 hrs by MTT assay; type: functional, cell-based; details: MG-63, 48 h
HT-29 [6] = assay: Growth inhibition of human HT-29 cells at 0.5 mg/ml by MTT assay relative to control; type: functional; details: read-out: GI
HOS-TE85 = assay: Growth inhibition of human MNNG-HOS cells after 48 hrs by MTT assay; type: functional, cell-based; details: HOS-TE85, 48 h
[7] = Antiproliferative activity against human GBC-SD cells after 48 hrs by MTT assay; type: functional, cell-based
HT-29 [8] = assay: Growth inhibition of human HT-29 cells at 16 ml/L after 36 hrs by MTT assay relative to control; type: functional
KYSE-150 cell line = assay: Antiproliferative activity against human KYSE-150 cells assessed as cell viability at 0.5 mg/ml after 24 hrs by MTT assay relative to control; type: functional; details: KYSE-150, 24 h, read-out: Activity
SGC-7901 [9] = assay: Induction of apoptosis in human SGC7901 cells at 60 mg/ml after 48 hrs by propidium iodide staining based flow cytometry (reference value: 3.54 +/- 0.47%); type: functional
CCRF-CEM = assay: Induction of apoptosis in human CCRF-CEM cells at antiproliferative IC50 after 72 hrs by Annexin V/propidium iodide staining based assay (reference value: 0.8%); type: functional
RPMI-8226 = assay: Growth inhibition of human RPMI8226 cells at […] after 24 hrs relative to control; type: functional; details: RPMI-8226, 24 h, read-out: GI
SGC-7901 [10] = assay: Induction of apoptosis in human SGC7901 cells at […] after 48 hrs by propidium iodide staining based flow cytometry (reference value: 3.54 +/- 0.47%); type: functional
MCF7 = assay: Antiproliferative activity against human MCF7 cells after 48 hrs by MTT assay; type: functional, cell-based; details: MCF7, 48 h
[11] = Antiproliferative activity against human GBC-SD cells assessed as cell survival at 1 mmol/L up to 72 hrs by MTT assay (reference value: 100%); type: functional; details: read-out: Survival
HT-29 [12] = assay: Growth inhibition of human HT-29 cells at 4 ml/L after 48 hrs by MTT assay relative to control; type: functional
U2OS = assay: Growth inhibition of human U2OS cells after 48 hrs by MTT assay; type: functional, cell-based
D341 cell line = assay: Growth inhibition of human D341 cells at 2 mg/ml after 72 hrs by CCK8 assay relative to control; type: functional; details: D341, 72 h, read-out: GI
C-33-A = assay: Induction of apoptosis in human C33A cells at 25 ug/ml after 48 hrs by Annexin V-FITC/propidium iodide staining based flow cytometry relative to control; type: functional
HL-60 = assay: Induction of apoptosis in human HL60 cells after 24 hrs by Annexin V-FITC/propidium iodide staining based flow cytometry relative to control; type: functional
[13] = Antiproliferative activity against human 95-D cells at 2 g/L after 48 hrs by MTT assay relative to control; type: functional
[14] = Antiproliferative activity against human 95-D cells at 1.5 g/L after 12 to 48 hrs by MTT assay relative to control; type: functional
MM1.S = assay: Growth inhibition of human MM1S cells after 24 hrs; type: functional, cell-based
[15] = Growth inhibition of human GRC1 cells at 1.5 g/L after 48 hrs by MTT assay relative to control; type: functional; details: read-out: GI
[16] = Growth inhibition of human GRC1 cells at 1.5 g/L after 96 hrs by MTT assay relative to control; type: functional; details: read-out: GI
NIH3T3 = assay: Antiproliferative activity against mouse NIH/3T3 cells after 72 hrs by MTT assay; type: cell-based; details: NIH3T3, 72 h
[17] = Growth inhibition of human GRC1 cells at 0.8 g/L after 72 hrs by MTT assay relative to control; type: functional; details: read-out: GI
BXPC-3 = assay: Induction of apoptosis in human BxPC3 cells at 0.25 mg/ml by flow cytometry (reference value: 2.81%); type: functional
[18] = Growth inhibition of human GRC1 cells at 0.3 g/L after 96 hrs by MTT assay relative to control; type: functional; details: read-out: GI
SW480 = assay: Antitumor activity against human SW480 cells xenografted in Balb/c mouse assessed as tumor growth inhibition at 30 mg/kg, ip everyday relative to control; type: functional; details: read-out: TGI
M21 [19] = assay: Induction of apoptosis in human M21 cells at 0.8 mg/ml after 48 hrs by Annexin V-FITC/propidium iodide staining based flow cytometry relative to control; type: functional
HepG2 [20] = assay: Antiproliferative activity against human HepG2 cells at 1 mg/ml after 72 hrs by MTT assay relative to control; type: functional
U-937 [21] = assay: Induction of apoptosis in human U937 cells after 24 hrs by Annexin V-FITC/propidium iodide staining based flow cytometry relative to control; type: functional
UMR108 [22] = assay: Growth inhibition of rat UMR108 cells assessed as cell proliferation at 1.5 mg/ml after 24 hrs by MTT assay (reference value: 0.405 +/- 0.007%); type: functional; details: UMR108, 24 h, read-out: Activity
HT-29 [23] = assay: Synergistic growth inhibition of human HT-29 cells at 2 mg/ml cotreated with 10 ug/ml irinotecan by MTT assay relative to control; type: functional
[24] = Growth inhibition of human MM1R cells after 24 hrs; type: functional; details: MM.1R
MG-63 [25] = assay: Growth inhibition of human MG63 cells at 0.8 mg/ml after 48 hrs by MTT assay relative to control; type: functional; details: MG-63, 48 h, read-out: GI
HeLa = assay: Induction of apoptosis in human HeLa cells at 50 ug/ml after 48 hrs by Annexin V-FITC/propidium iodide staining based flow cytometry relative to control; type: functional
HT-29 [26] = assay: Growth inhibition of human HT-29 cells at 8 ml/L after 36 hrs by MTT assay relative to control; type: functional
PANC-1 [27] = assay: Induction of apoptosis in human PANC1 cells at 1.25 mg/ml by flow cytometry (reference value: 4.13%); type: functional
M21 [28] = assay: Growth inhibition of human M21 cells after 48 hrs by MTT assay; type: functional, cell-based; details: M21, 48 h
HT-29 [29] = assay: Growth inhibition of human HT-29 cells at 4 ml/L after 36 hrs by MTT assay relative to control; type: functional
U-937 [30] = assay: Antiproliferative activity against human U937 cells after 24 hrs by MTT assay; type: functional, cell-based; details: U-937, 24 h

O=C1CCC[C@@H]2[C@H]3CCCN4CCC[C@@H](CN12)[C@@H]34 [MATRINE]
growth inhibition (GI) (HT-29 [1]): 29.73% | growth at 500 µg/mL (UMR108 [2]): 0.313% | IC50 (HepG2 [3]): 3.22 mM | Activity (PANC-1 [4]): 8.71% | IC50 (MG-63 [5]): 7.05 mM | inhibition of growth at 500 µg/mL (HT-29 [6]): 26.9% | IC50 (HOS-TE85): 3.1 mM | IC50 [7]: 2 mM | growth inhibition (GI) (HT-29 [8]): 68.29% | viability at 500 µg/mL (KYSE-150 cell line): 82.2% | Activity (SGC-7901 [9]): 22.34% | Activity (CCRF-CEM): 5.4% | inhibition of growth at 2 g/mL (RPMI-8226): 74% | Activity (SGC-7901 [10]): 34.59% | IC50 (MCF7): 721 µg/mL (≈ 2900 µM) | viability at 1000 µM [11]: 72.1% | growth inhibition (GI) (HT-29 [12]): 54.22% | IC50 (U2OS): 7.25 mM | inhibition of growth at 2000 µg/mL (D341 cell line): 59.3% | Activity (C-33-A): 5.31% | Activity (HL-60): 41.1% | Activity [13]: 20% | Activity [14]: 30% | IC50 (MM1.S): 4.95 mM | inhibition of growth at 1500 µg/mL [15]: 32% | inhibition of growth at 1500 µg/mL [16]: 60.2% | IC50 (NIH3T3): > 8.06 mM | inhibition of growth at 800 µg/mL [17]: 25.4% | Activity (BXPC-3): 9.9% | inhibition of growth at 300 µg/mL [18]: 18.4% | inhibition in vivo at 30 mg/kg (SW480): 13.7% | Activity (M21 [19]): 40.3% | Activity (HepG2 [20]): 18.25% | Activity (U-937 [21]): 37.2% | growth at 1500 µg/mL (UMR108 [22]): 0.245% | growth inhibition (GI) (HT-29 [23]): 95.29% | IC50 [24]: 5.4 mM | inhibition of growth at 800 µg/mL (MG-63 [25]): 20% | Activity (HeLa): 19.53% | growth inhibition (GI) (HT-29 [26]): 58.2% | Activity (PANC-1 [27]): 42.55% | IC50 (M21 [28]): 3.1 mM | growth inhibition (GI) (HT-29 [29]): 42.48% | IC50 (U-937 [30]): 0.00237 mM
